Test results published in the NIST ThermoML archive (doi:10.1021/je0495583).
Numbers after ± are expanded uncertainties.

Tests used:
[1] = 293.15 K; 101.33 kPa; Liquid; Pycnometric method
[2] = refractive index (Na D-line) (dimensionless); conditions: 298.15 K; 101.33 kPa; Liquid; Standard Abbe refractometry

Structure (SMILES) | mass density [1] | refractive index [2]
CCC(C)(C)OC [2-methoxy-2-methylbutane] | 770.6 ± 0.8 kg/m3 | 1.3867 ± 0.0008
COC(C)(C)C [2-methoxy-2-methylpropane] | 740.5 ± 0.8 kg/m3 | 1.366 ± 0.0008
C1CCCCC1 [cyclohexane] | 778.4 ± 0.8 kg/m3 | 1.4236 ± 0.0008
CCCCCC [hexane] | 659.4 ± 0.6 kg/m3 | 1.3722 ± 0.0007
Cc1ccccc1 [toluene] | 866.2 ± 0.9 kg/m3 | 1.4941 ± 0.0008
